Experimental data published in ChEMBL document CHEMBL4706548, “3-Methylthiazolo[3,2-a]benzimidazole-benzenesulfonamide conjugates as novel carbonic anhydrase inhibitors endowed with anticancer activity: Design, synthesis, biological and molecular modeling studies” (Eur J Med Chem, 2020).
Blank lines part the entries; values can stand above or below the compound they belong to.

Tests used:
Carbonic anhydrase 9 = Carbonic anhydrase 9 (Homo sapiens, UniProt Q16790); test: Inhibition of human CA9 preincubated for 15 mins prior to testing by phenol red-based stopped-flow CO2 hydration assay
Carbonic anhydrase 1 = Carbonic anhydrase 1 (Homo sapiens, UniProt P00915); test: Inhibition of human CA1 preincubated for 15 mins prior to testing by phenol red-based stopped-flow CO2 hydration assay
MDA-MB-231 [1] = test: Antiproliferative activity against human MDA-MB-231 cells assessed as reduction in cell viability incubated for 48 hrs under chemically-induced hypoxic condition by MTT assay; conditions: MDA-MB-231, 48 h
MCF7 [2] = test: Induction of apoptosis in human MCF7 cells assessed as late apoptotic cells at […] measured after 24 hrs by Annexin V-FITC/propidium iodide staining based flow cytometry (reference value: 0.29 %); format: functional; design: dose or concentration left out as unconfirmed
MDA-MB-231 [3] = test: Induction of cell cycle arrest in human MDA-MB-231 cells assessed as decrease in G0/G1 cells at IC50 concentration incubated for 24 hrs by propidium iodide staining based flow cytometry (reference value: 56.42%); format: functional; design: scale not given: the % may be the effect or the level left
MCF7 [4] = test: Induction of apoptosis in human MCF7 cells assessed as necrotic cells at […] measured after 24 hrs by Annexin V-FITC/propidium iodide staining based flow cytometry (reference value: 1.15 %); format: functional; design: dose or concentration left out as unconfirmed
MDA-MB-231 [5] = test: Induction of apoptosis in human MDA-MB-231 cells assessed as necrotic cells at […] measured after 24 hrs by Annexin V-FITC/propidium iodide staining based flow cytometry (reference value: 0.64 %); format: functional; design: dose or concentration left out as unconfirmed
MDA-MB-231 [6] = test: Antiproliferative activity against human MDA-MB-231 cells assessed as reduction in cell viability incubated for 48 hrs under normaxic condition by MTT assay; conditions: MDA-MB-231, 48 h
MCF7 [7] = test: Induction of cell cycle arrest in human MCF7 cells assessed as decrease in G0/G1 cells at IC50 concentration incubated for 24 hrs by propidium iodide staining based flow cytometry (reference value: 52.63%); format: functional; design: scale not given: the % may be the effect or the level left
MCF7 [8] = test: Antiproliferative activity against human MCF7 cells assessed as reduction in cell viability incubated for 48 hrs under chemically-induced hypoxic condition by MTT assay; conditions: MCF7, 48 h
MDA-MB-231 [9] = test: Induction of apoptosis in human MDA-MB-231 cells assessed as early apoptotic cells at […] measured after 24 hrs by Annexin V-FITC/propidium iodide staining based flow cytometry (reference value: 0.56 %); format: functional; design: dose or concentration left out as unconfirmed
MDA-MB-231 [10] = test: Induction of apoptosis in human MDA-MB-231 cells assessed as late apoptotic cells at […] measured after 24 hrs by Annexin V-FITC/propidium iodide staining based flow cytometry (reference value: 0.24 %); format: functional; design: dose or concentration left out as unconfirmed
MCF7 [11] = test: Antiproliferative activity against human MCF7 cells assessed as reduction in cell viability incubated for 48 hrs under normaxic condition by MTT assay; conditions: MCF7, 48 h
MCF7 [12] = test: Induction of apoptosis in human MCF7 cells assessed as early apoptotic cells at […] measured after 24 hrs by Annexin V-FITC/propidium iodide staining based flow cytometry (reference value: 0.42 %); format: functional; design: dose or concentration left out as unconfirmed

Sequence of Carbonic anhydrase 1 (P00915 whole entry): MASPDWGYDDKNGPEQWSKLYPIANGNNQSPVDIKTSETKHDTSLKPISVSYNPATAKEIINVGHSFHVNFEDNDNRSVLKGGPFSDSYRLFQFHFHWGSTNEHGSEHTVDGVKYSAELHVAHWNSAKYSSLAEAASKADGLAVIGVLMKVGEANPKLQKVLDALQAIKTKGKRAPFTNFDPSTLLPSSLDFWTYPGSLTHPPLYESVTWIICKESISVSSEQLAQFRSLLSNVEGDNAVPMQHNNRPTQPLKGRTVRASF

Ki (Carbonic anhydrase 9): 813 nM
Structure (SMILES): Cc1c(C(=O)/C=C/Nc2cccc(S(N)(=O)=O)c2)sc2nc3ccccc3n12

Ki (Carbonic anhydrase 9): 30.8 nM
Structure (SMILES): Cc1c(C(=O)/C=C/Nc2cc(Cl)c(S(N)(=O)=O)cc2S(N)(=O)=O)sc2nc3ccccc3n12

Ki (Carbonic anhydrase 9): 73.1 nM
Structure (SMILES): C/C(=N\Nc1ccc(S(N)(=O)=O)cc1)c1sc2nc3ccccc3n2c1C

Ki (Carbonic anhydrase 9): 14500 nM
Ki (Carbonic anhydrase 1): > 10000 nM
Structure (SMILES): Cc1c(C(=O)/C=C/Nc2cccc(C(=O)O)c2)sc2nc3ccccc3n12

Ki (Carbonic anhydrase 9): 76.7 nM
Structure (SMILES): Cc1c(NC(=O)Nc2cccc(S(N)(=O)=O)c2)sc2nc3ccccc3n12

IC50 (MDA-MB-231 [1]): 4810 nM
Ki (Carbonic anhydrase 9): 6.2 nM
IC50 (MDA-MB-231 [6]): 9370 nM
IC50 (MCF7 [8]): 2360 nM
IC50 (MCF7 [11]): 1510 nM
Structure (SMILES): Cc1ccc(N/C=C/C(=O)c2sc3nc4ccccc4n3c2C)cc1S(N)(=O)=O
Activity (MCF7 [2]): 17.16%
Activity (MDA-MB-231 [3]): 26.47%
Activity (MCF7 [4]): 6.04%
Activity (MDA-MB-231 [5]): 11.22%
Activity (MCF7 [7]): 34.36%
Activity (MDA-MB-231 [9]): 7.21%
Activity (MDA-MB-231 [10]): 15.64%
Activity (MCF7 [12]): 3.71%

Ki (Carbonic anhydrase 9): 63.3 nM
Structure (SMILES): Cc1c(NC(=O)Nc2ccc(S(N)(=O)=O)cc2)sc2nc3ccccc3n12

Ki (Carbonic anhydrase 9): 12.3 nM
Structure (SMILES): Cc1c(C(=O)/C=C/NNc2ccc(S(N)(=O)=O)cc2)sc2nc3ccccc3n12

Ki (Carbonic anhydrase 9): 53.1 nM
Structure (SMILES): Cc1c(NC(=O)NNC(=O)c2ccc(S(N)(=O)=O)cc2)sc2nc3ccccc3n12

IC50 (MDA-MB-231 [1]): 6790 nM
Ki (Carbonic anhydrase 9): 5.5 nM
IC50 (MDA-MB-231 [6]): 9910 nM
IC50 (MCF7 [8]): 29400 nM
IC50 (MCF7 [11]): 20400 nM
Structure (SMILES): C/C(=N\NC(=O)c1ccc(S(N)(=O)=O)cc1)c1sc2nc3ccccc3n2c1C

Ki (Carbonic anhydrase 9): 55.9 nM
Structure (SMILES): Cc1c(C(=O)/C=C/NCc2ccc(S(N)(=O)=O)cc2)sc2nc3ccccc3n12

Ki (Carbonic anhydrase 9): 830 nM
Structure (SMILES): Cc1c(C(=O)/C=C/Nc2ccc(C(=O)O)cc2)sc2nc3ccccc3n12

Ki (Carbonic anhydrase 9): 36.6 nM
Structure (SMILES): Cc1c(C(=O)/C=C/Nc2ccc(S(N)(=O)=O)cc2)sc2nc3ccccc3n12

Ki (Carbonic anhydrase 9): 29.7 nM
Structure (SMILES): Cc1c(NC(=O)NCCc2ccc(S(N)(=O)=O)cc2)sc2nc3ccccc3n12

Ki (Carbonic anhydrase 9): 498 nM
Structure (SMILES): Cc1c(C(=O)/C=C/Nc2ccccc2S(N)(=O)=O)sc2nc3ccccc3n12

Ki (Carbonic anhydrase 9): 20.5 nM
Structure (SMILES): Cc1c(C(=O)/C=C/NCCc2ccc(S(N)(=O)=O)cc2)sc2nc3ccccc3n12

Ki (Carbonic anhydrase 9): 831 nM
Structure (SMILES): Cc1c(NC(=O)Nc2ccccc2S(N)(=O)=O)sc2nc3ccccc3n12

IC50 (MDA-MB-231 [1]): 15200 nM
Ki (Carbonic anhydrase 9): 9.7 nM
IC50 (MDA-MB-231 [6]): 14200 nM
IC50 (MCF7 [8]): 9380 nM
IC50 (MCF7 [11]): 8070 nM
Structure (SMILES): Cc1c(C(=O)/C=C/NNC(=O)c2ccc(S(N)(=O)=O)cc2)sc2nc3ccccc3n12
